Assay [1] has as its target T1, Endothelin receptor type B (Rattus norvegicus, UniProt P21451).
T1 sequence (P21451 whole entry): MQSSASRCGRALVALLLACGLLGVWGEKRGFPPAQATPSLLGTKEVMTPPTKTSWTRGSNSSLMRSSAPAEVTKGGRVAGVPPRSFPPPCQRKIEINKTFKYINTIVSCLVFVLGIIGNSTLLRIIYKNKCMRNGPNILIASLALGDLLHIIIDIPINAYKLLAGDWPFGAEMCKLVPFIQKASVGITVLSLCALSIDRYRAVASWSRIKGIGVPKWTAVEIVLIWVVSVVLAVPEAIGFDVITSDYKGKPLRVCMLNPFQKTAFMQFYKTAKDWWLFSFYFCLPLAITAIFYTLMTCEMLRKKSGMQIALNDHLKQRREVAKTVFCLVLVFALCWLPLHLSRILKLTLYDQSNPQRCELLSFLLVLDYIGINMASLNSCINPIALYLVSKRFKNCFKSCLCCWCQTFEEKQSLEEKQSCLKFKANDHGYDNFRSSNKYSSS
The assay is described as follows: Concentration required to produce 50% inhibition of binding against ET B receptor obtained from rat brain membrane.

Assay [2] addresses T2, Endothelin-1 receptor (Rattus norvegicus, UniProt P26684).
T2 sequence (P26684 whole entry): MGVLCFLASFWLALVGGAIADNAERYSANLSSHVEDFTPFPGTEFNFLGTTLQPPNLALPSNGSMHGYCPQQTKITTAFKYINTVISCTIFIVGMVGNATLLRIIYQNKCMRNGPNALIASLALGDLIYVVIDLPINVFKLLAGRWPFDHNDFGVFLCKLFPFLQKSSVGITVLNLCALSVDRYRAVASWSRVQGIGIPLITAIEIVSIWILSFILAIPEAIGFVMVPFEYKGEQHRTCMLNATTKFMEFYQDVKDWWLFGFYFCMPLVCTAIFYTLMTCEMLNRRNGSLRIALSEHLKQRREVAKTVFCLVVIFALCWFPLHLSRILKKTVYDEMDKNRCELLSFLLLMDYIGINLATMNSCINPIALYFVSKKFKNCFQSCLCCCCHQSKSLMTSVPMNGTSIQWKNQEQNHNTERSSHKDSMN
In words: Concentration required to produce 50% inhibition of binding against ET A receptor obtained from rat thoracic aortic membrane.

For the molecule `CCC[C@@H](NC(=O)[C@@H](NC(=O)[C@H](CC(=O)O)NC(=O)[C@H](CC(C)C)NC(=O)[C@H](Cc1cnc[nH]1)NC(=O)[C@H](CS)NC(=O)[C@H](Cc1ccccc1)NC(=O)[C@H](Cc1ccc(O)cc1)NC(=O)[C@@H](NC(=O)[C@H](CS)NC(=O)[C@H](CCC(=O)O)NC(=O)[C@H](CCCCN)NC(=O)[C@H](CC(=O)O)NC(=O)[C@H](CCSC)NC(=O)[C@H](CC(C)C)NC(=O)[C@H](CO)NC(=O)[C@H](CO)NC(=O)[C@H](CS)NC(=O)[C@H](CO)NC(=O)[C@@H](N)CS)C(C)C)[C@H](C)CC)C(=O)N[C@@H](Cc1c[nH]c2ccccc12)C(=O)O` [Endothelin-1 analogue], the pIC50 in assay [1] is 10; in assay [2], 7.6.

For the molecule `CC[C@@H](C)[C@H](NC(=O)[C@H](CC(=O)O)NC(=O)[C@H](CC(C)C)NC(=O)[C@H](Cc1cnc[nH]1)NC(=O)[C@H](CS)NC(=O)[C@H](Cc1ccccc1)NC(=O)[C@H](Cc1ccc(O)cc1)NC(=O)[C@@H](NC(=O)[C@H](CS)NC(=O)[C@H](CCC(=O)O)NC(=O)[C@H](CCCCN)NC(=O)[C@H](CC(=O)O)NC(=O)[C@H](CCSC)NC(=O)[C@H](CC(C)C)NC(=O)[C@H](CO)NC(=O)[C@H](CO)NC(=O)[C@H](CS)NC(=O)[C@H](CO)NC(=O)[C@@H](N)CS)C(C)C)C(=O)N[C@H](Cc1ccccc1)C(=O)N[C@@H](Cc1c[nH]c2ccccc12)C(=O)O` [Endothelin-1 analogue], the figures for the pIC50 in assay [1] and in assay [2] were 8.6 and 6.07, respectively.

As for `CC[C@H](C)[C@H](NC(=O)[C@H](CC(=O)O)NC(=O)[C@H](CC(C)C)NC(=O)[C@H](Cc1cnc[nH]1)NC(=O)[C@H](CS)NC(=O)[C@H](Cc1ccccc1)NC(=O)[C@H](Cc1ccc(O)cc1)NC(=O)[C@@H](NC(=O)[C@H](CS)NC(=O)[C@H](CCC(=O)O)NC(=O)[C@H](CCCCN)NC(=O)[C@H](CC(=O)O)NC(=O)[C@H](CCSC)NC(=O)[C@H](CC(C)C)NC(=O)[C@H](CO)NC(=O)[C@H](CO)NC(=O)[C@H](CS)NC(=O)[C@H](CO)NC(=O)[C@@H](N)CS)C(C)C)C(=O)N[C@@H](C)C(=O)N[C@@H](Cc1c[nH]c2ccccc12)C(=O)O` [Endothelin-1 analogue], the pIC50 was found to be 9.4 in assay [1] and 7.53 in assay [2].

As to `CC[C@H](C)[C@H](NC(=O)[C@H](CC(=O)O)NC(=O)[C@H](CC(C)C)NC(=O)[C@H](Cc1cnc[nH]1)NC(=O)[C@H](CS)NC(=O)[C@H](Cc1ccccc1)NC(=O)[C@H](Cc1ccc(O)cc1)NC(=O)[C@@H](NC(=O)[C@H](CS)NC(=O)[C@H](CCC(=O)O)NC(=O)[C@H](CCCCN)NC(=O)[C@H](CC(=O)O)NC(=O)[C@H](CCSC)NC(=O)[C@H](CC(C)C)NC(=O)[C@H](CO)NC(=O)[C@H](CO)NC(=O)[C@H](CS)NC(=O)[C@H](CO)NC(=O)[C@@H](N)CS)C(C)C)C(=O)N[C@H](C(=O)N[C@@H](Cc1c[nH]c2ccccc12)C(=O)O)C1CCCCC1` [Endothelin-1 analogue], the pIC50 worked out at 10 in assay [1] and 9.88 in assay [2].

A word on the pIC50: it is −log10 of the IC50, conventionally taken in molar units. Read a high pIC50 as a small IC50.

(Values after BindingDB's records for doi:10.1016/S0960-894X(01)80247-X (1994).)
